Assay results taken from patent US11479814B2, “Compounds for use in PCR systems and applications thereof” (LIFE TECHNOLOGIES CORPORATION, priority 2013, dated 2022).

Tested on: polymerase
Test: Amplification plots and Cq of gene targets, Dt4 compared with Tween 20 and Brij-58
Assay type: biochemical
Conditions: B2M, GAPDH, RPLPO; FIGS. 16-18
From the text: All amplification plots shown herein graphically represent target nucleic acid amplification as ΔRn (y-axis) as a function of cycle number (x-axis).
FIGS. 7A through 7D and FIGS. 8A through 8D provide a comparison between Dt4 and Tween® 20 in amplifying four different targets (B2M, GAPDH, RPLPO, and GUSB).
FIG. 9 provides a comparison between Dt4 and Tween® 20 in amplifying various different targets.
FIGS. 11A and 11B, FIGS. 12A and 12B, FIGS. 13A and 13B, FIGS. 14A and 14B, FIGS. 15A and 15B show amplification plots comparing the activity of Dt4 to Brij-58 and Tween® 20 at various concentrations in amplifying HPRT1 or PPIA.
FIGS. 16-18 illustrate that Dt4 may be used at a lower concentration than Tween® 20 in various reactions (e.g., 0.002% Dt4 compared to 0.01% Tween® 20).

## Tween® 20
  concentration used in amplification reactions: 0.01%
